Marks after values point to notes of the source that are not given here.
Tests used:
PDGFRβ = biological target: T1, PDGFRβ (Homo sapiens, UniProt P09619); experiment: Inhibition of receptor tyrosine kinases activity assay; type: biochemical
T1 construct: purchased invitrogen PV3082

[1] = test system: NCI—H460 (non-small cell lung cancer); experiment: Anticancer pharmacodynamic assay in vivo, xenograft; set-up: species or system nude mice; settings: for T/C (%): relative tumor volume (%): NCI-H460 xenograft, d0-13, P < 0.01 vs Control
From the text: (§1) The test method and steps are the same with those disclosed in “PHARMACODYNAMIC ASSAYS IN VIVO” of the present invention. The therapeutic effects of the compound of Example 53 against xenografts of colon cancer, non-small cell lung cancer, liver cancer, melanoma, renal cancer in nude mice are estimated.
NCI—H460 (non-small cell lung cancer): Cell Bank, Chinese Academy of Sciences, TCHu205;
(§2) Nude mice were hypodermic inoculated HT-29 human colon cancer cell. After tumors grew to 100-300 mm^3, mice were randomly divided into teams (d0). The volume of tumors and weigh of the mice were measured for 2-3 times per week. The calculation formula of the volume of tumor (V) is: V=½×a×b^2, a: length of tumor, b: width of tumor.

Ret = biological target: T2, Ret (Homo sapiens, UniProt P07949); experiment: Inhibition of receptor tyrosine kinases activity assay; type: biochemical
T2 construct: purchased invitrogen PV3819
T2 sequence (P07949 29-1114): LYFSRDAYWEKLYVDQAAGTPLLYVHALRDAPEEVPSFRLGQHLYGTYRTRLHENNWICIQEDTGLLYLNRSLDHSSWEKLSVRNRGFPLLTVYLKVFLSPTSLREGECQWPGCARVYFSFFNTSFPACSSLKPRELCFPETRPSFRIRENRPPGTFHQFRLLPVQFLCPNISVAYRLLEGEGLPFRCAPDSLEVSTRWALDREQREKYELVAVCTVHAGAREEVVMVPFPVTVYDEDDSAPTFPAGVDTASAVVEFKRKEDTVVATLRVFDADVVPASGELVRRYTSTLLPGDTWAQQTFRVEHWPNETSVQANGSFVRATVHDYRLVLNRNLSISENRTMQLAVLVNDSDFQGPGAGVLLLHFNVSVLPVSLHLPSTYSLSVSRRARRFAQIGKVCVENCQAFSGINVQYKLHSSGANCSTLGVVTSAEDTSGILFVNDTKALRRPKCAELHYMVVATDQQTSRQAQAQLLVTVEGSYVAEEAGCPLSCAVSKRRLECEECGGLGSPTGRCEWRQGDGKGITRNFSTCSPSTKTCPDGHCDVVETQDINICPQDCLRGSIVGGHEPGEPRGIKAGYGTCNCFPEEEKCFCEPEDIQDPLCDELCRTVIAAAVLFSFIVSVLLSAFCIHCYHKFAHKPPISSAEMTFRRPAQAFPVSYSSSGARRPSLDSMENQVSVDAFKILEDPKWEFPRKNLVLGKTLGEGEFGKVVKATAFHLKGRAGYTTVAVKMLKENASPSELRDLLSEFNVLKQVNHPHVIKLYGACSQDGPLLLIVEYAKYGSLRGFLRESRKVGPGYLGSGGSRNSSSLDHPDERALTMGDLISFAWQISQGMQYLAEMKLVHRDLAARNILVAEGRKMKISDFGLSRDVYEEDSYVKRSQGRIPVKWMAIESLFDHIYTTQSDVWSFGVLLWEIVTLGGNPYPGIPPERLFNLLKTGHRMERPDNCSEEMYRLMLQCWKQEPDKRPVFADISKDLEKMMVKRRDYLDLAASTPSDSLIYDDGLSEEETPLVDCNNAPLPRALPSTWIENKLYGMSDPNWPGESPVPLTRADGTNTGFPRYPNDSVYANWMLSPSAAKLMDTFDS

c-Kit = biological target: T3, c-Kit (Homo sapiens, UniProt P10721); experiment: as above; type: biochemical
T3 construct: purchased invitrogen PV3081
T3 sequence (P10721 26-976): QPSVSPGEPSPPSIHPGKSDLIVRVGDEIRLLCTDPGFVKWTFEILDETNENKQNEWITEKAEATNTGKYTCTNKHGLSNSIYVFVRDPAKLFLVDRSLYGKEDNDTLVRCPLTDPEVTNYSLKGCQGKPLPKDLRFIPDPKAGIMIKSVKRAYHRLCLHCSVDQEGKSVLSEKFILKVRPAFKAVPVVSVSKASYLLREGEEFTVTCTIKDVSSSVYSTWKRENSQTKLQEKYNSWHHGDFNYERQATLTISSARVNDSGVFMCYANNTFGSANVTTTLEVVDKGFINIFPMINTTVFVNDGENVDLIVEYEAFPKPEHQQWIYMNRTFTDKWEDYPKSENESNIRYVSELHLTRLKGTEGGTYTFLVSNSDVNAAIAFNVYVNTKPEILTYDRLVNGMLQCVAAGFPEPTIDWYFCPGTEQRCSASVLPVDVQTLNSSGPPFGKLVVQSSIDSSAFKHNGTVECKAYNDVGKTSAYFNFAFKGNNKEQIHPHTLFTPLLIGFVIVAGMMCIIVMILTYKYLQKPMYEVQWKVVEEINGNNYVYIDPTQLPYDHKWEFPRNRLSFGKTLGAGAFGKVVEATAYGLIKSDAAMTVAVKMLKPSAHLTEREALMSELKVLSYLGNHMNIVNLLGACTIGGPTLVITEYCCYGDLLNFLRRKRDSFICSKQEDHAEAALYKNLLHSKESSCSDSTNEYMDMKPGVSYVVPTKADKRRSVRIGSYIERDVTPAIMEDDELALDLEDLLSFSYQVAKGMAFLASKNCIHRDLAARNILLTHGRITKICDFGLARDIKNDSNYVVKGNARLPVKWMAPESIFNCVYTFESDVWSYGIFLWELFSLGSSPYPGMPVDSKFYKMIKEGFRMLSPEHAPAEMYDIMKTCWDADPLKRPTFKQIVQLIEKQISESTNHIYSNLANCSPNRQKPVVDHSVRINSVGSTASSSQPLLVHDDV

Caki-1 (renal cancer) = experiment: Anticancer pharmacodynamic assay in vivo, xenograft; set-up: species or system nude mice; settings: for T/C (%): relative tumor volume (%): Caki-1 xenograft, d0-22
From the text: as §1
Caki-1 (renal cancer): Cell Bank, Chinese Academy of Sciences, TCHu135.
as §2

HT-29(colon cancer) = experiment: as above; set-up: species or system nude mice; settings: for T/C (%): relative tumor volume (%): HT-29 xenograft, d0-20
From the text: as §1
HT-29(colon cancer): Cell Bank, Chinese Academy of Sciences, TCHu103;
as §2

[2] = test system: HUVEC (human umbilical vein endothelial cells); experiment: Inhibition of cancer cell proliferation assay (SRB); type: cell-based; settings: mean ± SD, 72 hours
From the text: (§3) The cellular assay described here is to test the proliferation inhibition activity of the compound of Example 53 on the cancer cells in vitro using Sulforhodamine B (SRB) method. The cancer cells include HUVEC (human umbilical vein endothelial cells), HT-29 (human colon cancer cells), Mo7e (human megakaryoblastic leukemia cell line), A431 (human epidermoid carcinoma cells), NCI—H526 (small-cell lung cancer cells), and SK—BR-3 (human breast cancer cells).
HUVEC cancer cell: American Type Culture Collection, Cat. No. CRL-1730
(§4) The following in vitro assay is to determine the activity of the tested compound for inhibiting the proliferation of the cancer cells mentioned above. The activity is represented by the IC50 value. The general procedures of the assay are given as follows: Cancer cells mentioned above were chosen and seeded to 96-well cell culture plate at a suitable concentration (e.g., 5000 cells/mL medium). These cells then were incubated in carbon dioxide (CO2) incubator until they reached 85% confluency. […] 72 hours later, the activity of the tested compound for inhibiting the cell proliferation was determined by using Sulforhodamine B (SRB) method. IC50 value on tested cells is calculated by the data of inhibition rates of serial concentrations of the tested compound.

A375 (melanoma) = experiment: Anticancer pharmacodynamic assay in vivo, xenograft; set-up: species or system nude mice; settings: for T/C (%): relative tumor volume (%): A375 xenograft
From the text: as §1
A375 (melanoma): Cell Bank, Chinese Academy of Sciences, TCHu4;
as §2

[3] = test system: HT-29 (human colon cancer cells); experiment: Inhibition of cancer cell proliferation assay (SRB); type: cell-based; settings: mean ± SD, 72 hours
From the text: as §3
HT-29 cancer cell: Cell Bank, Chinese Academy of Sciences, TCHu103;
as §4

[4] = test system: Mo7e (human megakaryoblastic leukemia cell line); experiment: as above; type: cell-based; settings: mean ± SD, 72 hours
From the text: as §3
Mo7e cancer cell: originally described by Avanzi et al. ((1988) Br. J. Haematol. 69:359-366), was obtained from Genetics Institute (Boston, Mass.) and was maintained in Iscove's modified Dulbecco's medium (Life Technologies, Inc.);
as §4, with “medium).” for “medium). These cells then were incubated in carbon dioxide (CO2) incubator until they reached 85% confluency.”

[5] = test system: Calu-3(non-small cell lung cancer); experiment: Anticancer pharmacodynamic assay in vivo, xenograft; set-up: species or system nude mice; settings: for T/C (%): relative tumor volume (%) / Note: PR (partial regression), animals: Calu-3 xenograft, d0-20; for Note: PR (partial regression), animals: treatment group n = 6
From the text: as §1
Calu-3(non-small cell lung cancer): Cell Bank, Chinese Academy of Sciences, TCHu157;
as §2

Flt1 = biological target: T4, Flt1 (Homo sapiens, UniProt P17948); experiment: Inhibition of receptor tyrosine kinases activity assay; type: biochemical
T4 construct: purchased invitrogen PV3666
T4 sequence (P17948 27-1338): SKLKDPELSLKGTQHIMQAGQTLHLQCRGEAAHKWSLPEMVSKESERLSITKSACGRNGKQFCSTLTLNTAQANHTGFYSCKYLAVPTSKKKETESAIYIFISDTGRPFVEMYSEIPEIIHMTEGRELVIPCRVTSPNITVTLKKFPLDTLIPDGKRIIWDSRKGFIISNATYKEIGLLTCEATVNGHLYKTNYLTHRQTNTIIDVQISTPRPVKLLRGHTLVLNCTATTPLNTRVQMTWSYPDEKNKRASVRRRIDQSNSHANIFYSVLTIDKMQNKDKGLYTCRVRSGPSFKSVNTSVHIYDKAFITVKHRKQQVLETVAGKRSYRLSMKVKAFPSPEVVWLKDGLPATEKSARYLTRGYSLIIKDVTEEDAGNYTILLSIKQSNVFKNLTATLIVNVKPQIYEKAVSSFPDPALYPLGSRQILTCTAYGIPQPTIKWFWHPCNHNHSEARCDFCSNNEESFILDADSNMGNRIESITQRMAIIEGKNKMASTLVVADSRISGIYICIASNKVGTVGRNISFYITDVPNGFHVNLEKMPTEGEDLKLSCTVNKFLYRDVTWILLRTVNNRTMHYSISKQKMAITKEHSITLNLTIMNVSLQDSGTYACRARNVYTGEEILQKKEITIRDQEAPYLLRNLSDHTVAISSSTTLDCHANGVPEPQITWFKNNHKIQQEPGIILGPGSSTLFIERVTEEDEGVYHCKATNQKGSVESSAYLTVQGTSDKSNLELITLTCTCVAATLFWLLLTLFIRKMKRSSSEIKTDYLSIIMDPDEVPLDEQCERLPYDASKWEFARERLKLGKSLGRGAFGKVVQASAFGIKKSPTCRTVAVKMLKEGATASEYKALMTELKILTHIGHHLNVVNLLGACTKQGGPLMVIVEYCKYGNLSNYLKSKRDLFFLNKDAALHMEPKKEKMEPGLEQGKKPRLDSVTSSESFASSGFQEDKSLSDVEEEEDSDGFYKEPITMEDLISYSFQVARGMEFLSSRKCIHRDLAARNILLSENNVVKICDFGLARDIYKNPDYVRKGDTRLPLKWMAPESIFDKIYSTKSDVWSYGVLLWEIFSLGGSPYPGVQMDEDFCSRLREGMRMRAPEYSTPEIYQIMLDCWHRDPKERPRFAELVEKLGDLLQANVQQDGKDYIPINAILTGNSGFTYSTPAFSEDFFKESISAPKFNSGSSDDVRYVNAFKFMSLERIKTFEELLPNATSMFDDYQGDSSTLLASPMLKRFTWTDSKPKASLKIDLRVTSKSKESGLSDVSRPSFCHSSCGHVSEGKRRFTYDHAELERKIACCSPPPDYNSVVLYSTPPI

[6] = mean ± SD, 20 μM ATP, 25° C., 45 minutes

T1 sequence (P09619 33-1106): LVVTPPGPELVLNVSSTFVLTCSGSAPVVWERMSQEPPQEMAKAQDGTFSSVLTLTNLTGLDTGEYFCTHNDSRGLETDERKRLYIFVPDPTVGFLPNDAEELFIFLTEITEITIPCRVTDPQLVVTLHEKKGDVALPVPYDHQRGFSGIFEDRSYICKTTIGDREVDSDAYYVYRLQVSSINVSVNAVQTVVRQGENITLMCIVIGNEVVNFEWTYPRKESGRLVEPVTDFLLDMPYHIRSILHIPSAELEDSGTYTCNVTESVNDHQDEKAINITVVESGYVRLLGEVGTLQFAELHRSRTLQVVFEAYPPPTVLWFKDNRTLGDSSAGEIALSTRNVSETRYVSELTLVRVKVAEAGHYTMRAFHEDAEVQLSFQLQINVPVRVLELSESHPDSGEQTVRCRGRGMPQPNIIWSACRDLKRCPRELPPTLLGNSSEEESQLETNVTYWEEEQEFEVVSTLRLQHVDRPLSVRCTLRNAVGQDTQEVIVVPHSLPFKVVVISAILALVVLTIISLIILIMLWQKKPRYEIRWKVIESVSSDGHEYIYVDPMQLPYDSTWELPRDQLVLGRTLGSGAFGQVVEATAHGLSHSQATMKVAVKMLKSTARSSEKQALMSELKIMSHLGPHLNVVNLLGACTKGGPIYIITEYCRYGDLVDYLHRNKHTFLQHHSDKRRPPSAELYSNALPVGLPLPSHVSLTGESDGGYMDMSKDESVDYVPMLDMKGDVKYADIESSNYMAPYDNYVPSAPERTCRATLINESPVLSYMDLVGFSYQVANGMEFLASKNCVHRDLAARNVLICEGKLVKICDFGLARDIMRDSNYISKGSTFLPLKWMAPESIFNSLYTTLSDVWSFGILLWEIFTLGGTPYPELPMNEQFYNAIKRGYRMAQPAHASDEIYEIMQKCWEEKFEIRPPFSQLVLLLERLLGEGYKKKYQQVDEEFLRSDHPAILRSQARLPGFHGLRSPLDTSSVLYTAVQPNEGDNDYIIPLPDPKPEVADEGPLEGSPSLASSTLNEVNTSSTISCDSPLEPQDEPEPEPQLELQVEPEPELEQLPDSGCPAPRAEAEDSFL

Cc1c(/C=C2\C(=O)Nc3ccc(F)cc32)[nH]c2c1C(=O)N(C[C@H](O)CN1CCOCC1)CCC2 [Example 53, (R,Z)-2-(5-Fluoro-2-oxo-1,2-dihydro-indol-3-ylidenemethyl)-5-(2-hydroxy-3-morpholin-4-yl-propyl)-3-methyl-5,6,7,8-tetrahydro-1H-pyrrolo[3,2-c]azepin-4-one]
inhibition of kinase activity (in words) (PDGFRβ; PDGFRβ): obvious activity | IC50 (PDGFRβ; [6]): 0.0415 ± 0.0227 µM | T/C (%): relative tumor volume (%) ([1]; 15 mg/kg p.o): 41.1* % | T/C (%): relative tumor volume (%) ([1]; 30 mg/kg p.o): 46.3* % | T/C (%): relative tumor volume (%) ([1]; 60 mg/kg p.o): 58.4* % | anticancer activity against xenograft (in words) ([1]; NCI—H460 xenograft in nude mice): obvious anticancer activity | inhibition of kinase activity (in words) (Ret; Ret): obvious activity | IC50 (Ret; [6]): 0.182 ± 0.0064 µM | inhibition of kinase activity (in words) (c-Kit; c-Kit): obvious activity | IC50 (c-Kit; [6]): 0.0033 ± 0.0036 µM | anticancer activity against xenograft (in words) (Caki-1 (renal cancer); Caki-1 xenograft in nude mice): obvious anticancer activity | T/C (%): relative tumor volume (%) (Caki-1 (renal cancer); 15 mg/kg p.o): 73.0% | T/C (%): relative tumor volume (%) (Caki-1 (renal cancer); 30 mg/kg p.o): 45.5% | T/C (%): relative tumor volume (%) (Caki-1 (renal cancer); 60 mg/kg p.o): 36.8% | anticancer activity against xenograft (in words) (HT-29(colon cancer); HT-29 xenograft in nude mice): obvious anticancer activity | T/C (%): relative tumor volume (%) (HT-29(colon cancer); 15 mg/kg p.o): 49.4% | T/C (%): relative tumor volume (%) (HT-29(colon cancer); 30 mg/kg p.o): 48.5% | T/C (%): relative tumor volume (%) (HT-29(colon cancer); 60 mg/kg p.o): 31.6% | IC50 [2]: 1.1 µM | anticancer activity against xenograft (in words) (A375 (melanoma); A375 xenograft in nude mice): obvious anticancer activity | T/C (%): relative tumor volume (%) (A375 (melanoma); 15 mg/kg p.o d0-16): 82.5% | T/C (%): relative tumor volume (%) (A375 (melanoma); 30 mg/kg p.o d0-16): 58.5% | T/C (%): relative tumor volume (%) (A375 (melanoma); 60 mg/kg p.o d0-16): 46.4% | IC50 [3]: 2.4 ± 1.6 µM | IC50 [4]: 0.8 µM | anticancer activity against xenograft (in words) ([5]; Calu-3 xenograft in nude mice): obvious anticancer activity | T/C (%): relative tumor volume (%) ([5]; 15 mg/kg p.o): 26.3% | T/C (%): relative tumor volume (%) ([5]; 30 mg/kg p.o): 14.7% | Note: PR (partial regression), animals ([5]; 30 mg/kg p.o): 3/6(PR) | T/C (%): relative tumor volume (%) ([5]; 60 mg/kg p.o): 16.1% | Note: PR (partial regression), animals ([5]; 60 mg/kg p.o): 3/6(PR) | inhibition of kinase activity (in words) (Flt1; Flt1): obvious activity | IC50 (Flt1; [6]): 0.0309 ± 0.0057 µM

— patent US20130303518A1, “Methods of Inhibiting the Catalytic Activity of a Protein Kinase and of Treating a Protein Kinase Related Disorder” (JIANGSU HANSOH PHARMACEUTICAL CO., LTD., priority 2007, published 2013)
